From ChEMBL document CHEMBL1201862, “PubChem BioAssay data set” (2004) come the findings set out here.

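Tested at 5 concentrations; 48 h exposure; 96-well plates; endpoints linearly interpolated, else capped at highest concentration. GI50 is the concentration that inhibits growth by half.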 Calls of active or inactive are those of the source. No stated cut-off is given here; in the data, active = GI50 up to about 1.1 µM and inactive = higher.

Some test systems named below: OVCAR-4; SNB-19; CCRF-CEM; HL-60; HOP-92; EKVX; 786-0; IGROV-1; HCT-116; T47D; UACC-62; SNB-75; HT-29; U-251; SK-MEL-5; M14; Malme-3M; CAKI-1; SK-OV-3; SR.
Test in all cases: growth of human tumour cells (NCI), 48 h

In the case of `Oc1cc(-c2cccc(OC(F)(F)F)c2)nc2cc3c(cc12)OCO3`, the GI50 is 1.19 µM (inactive) in the test with OVCAR-4; 0.0938 µM (active) in the test with SNB-19; 0.0301 µM (active) in the test with CCRF-CEM; 0.0131 µM (active) in the test on HL-60; 1.05 µM (active) in the test with HOP-92; 0.643 µM (active) in the test on EKVX. Moreover, the GI50 with 786-0 is 0.0902 µM (active); in the test on IGROV-1, 0.355 µM (active); in the test with HCT-116 it was 0.0395 µM (active); in the test on T47D it was 55.7 µM (inactive); in the test on UACC-62, 0.123 µM (active); with SNB-75, 0.568 µM (active). In addition, the GI50 in the test on HT-29 was 1.96 µM (inactive); with U-251 it was 0.0658 µM (active); in the test on SK-MEL-5, 0.0508 µM (active); in the test on M14, 0.0867 µM (active); in the test on Malme-3M it was 0.0435 µM (active); in the test on CAKI-1 it was 0.0885 µM (active). Besides, the GI50 in the test on SK-OV-3 was 0.282 µM (active).
As to `Cc1ccc(S(=O)(=O)OC2CC(C(C)(C)C)CCC2c2ccccc2)cc1` (configuration not stated), the GI50 is 34.9 µM (inactive) in the test with OVCAR-4; 86.7 µM (inactive) in the test with SNB-19; > 100 µM (inactive) in the test on HL-60; 23.3 µM (inactive) with HOP-92; > 100 µM (inactive) in the test on EKVX; > 100 µM (inactive) in the test on 786-0. Further, the GI50 was 72.8 µM (inactive) in the test with IGROV-1; 50 µM (inactive) in the test on HCT-116; 53.7 µM (inactive) in the test with T47D; 23.6 µM (inactive) with SR; 57.5 µM (inactive) in the test with UACC-62; 27.9 µM (inactive) with SNB-75. Moreover, the GI50 in the test on HT-29 is 32.1 µM (inactive); in the test on U-251, 50.1 µM (inactive); with SK-MEL-5, 79.8 µM (inactive); in the test with M14 it was 88.7 µM (inactive); in the test on CAKI-1, 66.1 µM (inactive); with SK-OV-3, > 100 µM (inactive).
`COc1ccc(C2c3cc4c(cc3OC(N3CCOCC3)C2C)OCO4)cc1` (configuration not stated): the GI50 in the test on OVCAR-4 is 37.8 µM (inactive); in the test with SNB-19 it was 27.9 µM (inactive); in the test on CCRF-CEM, 20.3 µM (inactive); with HL-60, 21.1 µM (inactive); with HOP-92 it was 4.14 µM (inactive); in the test on EKVX, 23.9 µM (inactive). For the same compound, the GI50 in the test with 786-0 was 23.8 µM (inactive); in the test on IGROV-1 it was 30.3 µM (inactive); with HCT-116, 20.2 µM (inactive); in the test with T47D, 7.96 µM (inactive); in the test on SR it was 15.1 µM (inactive); in the test with UACC-62 it was 27.6 µM (inactive). Besides, the GI50 with SNB-75 is 35.9 µM (inactive); in the test on HT-29 it was 25.8 µM (inactive); in the test with U-251, 18 µM (inactive); in the test on SK-MEL-5 it was 22.6 µM (inactive); in the test with M14, 26.9 µM (inactive); with Malme-3M it was 7.38 µM (inactive). Besides, in the test on CAKI-1, the GI50 was 19.3 µM (inactive).
With `CCOC(=O)/C(C(=O)c1ccc[nH]1)=C1/CCCN1C`, the GI50 in the test on OVCAR-4, with SNB-19, in the test on CCRF-CEM, in the test with HL-60, in the test on EKVX and in the test on 786-0 was > 100 µM (inactive) in each case. Also, the GI50 in the test on IGROV-1, in the test on HCT-116, with T47D, with SR, in the test with UACC-62 and with SNB-75 was > 100 µM (inactive) each time. The GI50 in the test on HT-29, in the test with U-251, in the test with SK-MEL-5, in the test on M14, with Malme-3M and in the test with CAKI-1 was > 100 µM (inactive) each time. Besides, in the test with SK-OV-3, the GI50 is > 100 µM (inactive).
`c1ccc2c(c1)[C@@H]1O[C@@H]1[C@@]13O[C@@]21[C@H]1O[C@H]1c1ccccc13`: the GI50 in the test on OVCAR-4 is 11.9 µM (inactive); with SNB-19, 16.1 µM (inactive); in the test with CCRF-CEM, 4.48 µM (inactive); in the test on HL-60 it was 13.3 µM (inactive); with HOP-92 it was 9.89 µM (inactive); in the test on EKVX, 17 µM (inactive). For the same compound, the GI50 in the test on 786-0 was 15.2 µM (inactive); in the test on IGROV-1, 12.2 µM (inactive); in the test on HCT-116 it was 12.1 µM (inactive); with T47D, 17.8 µM (inactive); with UACC-62 it was 12.2 µM (inactive); in the test with SNB-75 it was 12.9 µM (inactive). The GI50 in the test on HT-29 was 20.2 µM (inactive); in the test on U-251 it was 12.3 µM (inactive); in the test with SK-MEL-5 it was 12.9 µM (inactive); in the test with M14, 15.6 µM (inactive); in the test on Malme-3M, 12.7 µM (inactive); in the test with CAKI-1, 10.8 µM (inactive). The GI50 with SK-OV-3 is 21.5 µM (inactive).
Consider `CCN(C(=O)/C=C/c1ccco1)c1ccccc1`, for which the GI50 was > 100 µM (inactive) in the test on OVCAR-4; > 100 µM (inactive) with SNB-19; > 100 µM (inactive) in the test on CCRF-CEM; 21.9 µM (inactive) in the test on HL-60; > 100 µM (inactive) in the test on HOP-92; > 100 µM (inactive) with EKVX. Further, the GI50 in the test with 786-0 is > 100 µM (inactive); in the test with IGROV-1, > 100 µM (inactive); in the test with HCT-116 it was > 100 µM (inactive); in the test with T47D, > 100 µM (inactive); with SR it was 46.2 µM (inactive); in the test on UACC-62, > 100 µM (inactive). In addition, the GI50 with SNB-75, with HT-29, in the test with U-251, with SK-MEL-5, with M14 and in the test on CAKI-1 was > 100 µM (inactive) each time. Also, the GI50 with SK-OV-3 is > 100 µM (inactive).
Turning to `N#CCc1nc(-c2cc3c(ccc4ccccc43)oc2=O)cs1`, the GI50 in the test on OVCAR-4 is 24.3 µM (inactive); in the test on SNB-19 it was 19.1 µM (inactive); in the test on CCRF-CEM it was > 100 µM (inactive); in the test on HL-60, > 100 µM (inactive); in the test on HOP-92, 20.3 µM (inactive); with EKVX it was 20.3 µM (inactive). Also, the GI50 in the test with 786-0 was 22.2 µM (inactive); in the test with IGROV-1, 15.2 µM (inactive); in the test on HCT-116 it was 54.3 µM (inactive); with T47D, 27.8 µM (inactive); in the test with UACC-62, 21.7 µM (inactive); in the test on SNB-75, 0.507 µM (active). In addition, the GI50 with HT-29 is 73.1 µM (inactive); with U-251, 18.9 µM (inactive); in the test with SK-MEL-5, 69.3 µM (inactive); in the test with M14 it was 99.1 µM (inactive); in the test with Malme-3M, > 100 µM (inactive); with CAKI-1 it was 50.1 µM (inactive). In addition, the GI50 in the test on SK-OV-3 was 30.3 µM (inactive).
For the compound `CCOC(=O)C1C(c2ccc(OC)cc2)c2c(nn(-c3ccccc3)c2O)CC1(C)O` (configuration not stated), the GI50 in the test with OVCAR-4 is 96.6 µM (inactive); with SNB-19, 75.2 µM (inactive); in the test with CCRF-CEM, 7.1 µM (inactive); in the test with HL-60 it was 1.38 µM (inactive); with HOP-92 it was 92.3 µM (inactive); with EKVX, 51.8 µM (inactive). The GI50 is > 100 µM (inactive) in the test on 786-0; > 100 µM (inactive) with IGROV-1; 17.9 µM (inactive) in the test with HCT-116; 12.9 µM (inactive) in the test on T47D; 6.49 µM (inactive) in the test with SR; 1.54 µM (inactive) in the test with UACC-62. Further, the GI50 in the test with SNB-75 is > 100 µM (inactive); in the test with HT-29, 28 µM (inactive); in the test on U-251 it was 53.3 µM (inactive); in the test on SK-MEL-5, 2.81 µM (inactive); in the test with M14, 11 µM (inactive); in the test on Malme-3M, > 100 µM (inactive). Besides, the GI50 in the test with CAKI-1 is > 100 µM (inactive).
In the case of `c1ccc(/N=C2\c3ccsc3/C(=N/c3ccccc3)c3ccsc32)cc1`, the GI50 is 1.77 µM (inactive) in the test with OVCAR-4; 1.98 µM (inactive) with SNB-19; 2.97 µM (inactive) in the test on CCRF-CEM; 1.61 µM (inactive) in the test on HL-60; 2.61 µM (inactive) with HOP-92; 2.09 µM (inactive) in the test on EKVX. The GI50 with 786-0 was 2.75 µM (inactive); in the test with IGROV-1, 1.92 µM (inactive); with HCT-116, 1.93 µM (inactive); with T47D it was 1.52 µM (inactive); in the test with UACC-62 it was 1.84 µM (inactive); in the test with SNB-75 it was 1.2 µM (inactive). Moreover, the GI50 is 2.67 µM (inactive) in the test with HT-29; 1.91 µM (inactive) in the test with U-251; 1.09 µM (active) in the test on SK-MEL-5; 1.34 µM (inactive) in the test on M14; 0.344 µM (active) in the test with Malme-3M; 4.49 µM (inactive) with CAKI-1. Also, in the test with SK-OV-3, the GI50 is 6.59 µM (inactive).
For the compound `CC(C)(C)C1=C(Br)C(C(C)(C)C)OP1(=O)O` (configuration not stated), the GI50 with OVCAR-4, in the test with SNB-19, in the test on HL-60, in the test on HOP-92, in the test with EKVX and in the test with 786-0 was > 100 µM (inactive) throughout. Moreover, the GI50 with IGROV-1, in the test with HCT-116, in the test on T47D, with UACC-62, with SNB-75 and in the test with HT-29 was > 100 µM (inactive) each time. Besides, the GI50 with U-251, with SK-MEL-5, in the test with M14, in the test on Malme-3M, in the test on CAKI-1 and in the test with SK-OV-3 was > 100 µM (inactive) each time.
With `O=C(O)c1ccc2nc(-c3ccccn3)c(-c3ccccn3)nc2c1`, the GI50 in the test on OVCAR-4, with SNB-19, in the test with CCRF-CEM, in the test on HL-60, in the test on HOP-92 and in the test on EKVX was > 100 µM (inactive) in each case. In addition, the GI50 in the test with 786-0, with IGROV-1, in the test with HCT-116, with T47D, in the test with SR and with UACC-62 was > 100 µM (inactive) throughout. The GI50 in the test with SNB-75, in the test on HT-29, in the test with U-251, in the test on SK-MEL-5, in the test with M14 and in the test with CAKI-1 was > 100 µM (inactive) each time. Also, in the test on SK-OV-3, the GI50 was > 100 µM (inactive).
